In PubChem BioAssay AID1259407 (Chemical Carcinogenesis Research Information System (CCRIS), 2018):
The source made the active and inactive calls. No rule for the calls is given here.

System: CCRIS mutagenicity, Ames/micronucleus/aberration tests
Assay: CCRIS mutagenicity studies

COc1ccc(N)cc1
mutagenic call (End Point: IN VITRO CHROMOSOMAL ABERRATIONS, Test System: CHINESE HAMSTER OVARY CELLS, Metabolic Activation: NONE): active; positive | mutagenic call (End Point: IN VITRO CHROMOSOMAL ABERRATIONS, Test System: CHINESE HAMSTER OVARY CELLS, Metabolic Activation: RAT, LIVER, S-9, AROCLOR 1254): active; positive | mutagenic call (End Point: MORPHOLOGICAL TRANSFORMATION, Test System: SYRIAN HAMSTER EMBRYO CELLS (SHE), Metabolic Activation: NONE): active; positive | mutagenic call (Test System: AMES SALMONELLA TYPHIMURIUM, Strain/Indicator: TA98, Metabolic Activation: HAMSTER, LIVER, S-9, AROCLOR 1254 (30%), Method: PREINCUBATION): inactive; negative | mutagenic call (Test System: AMES SALMONELLA TYPHIMURIUM, Strain/Indicator: TA98, Metabolic Activation: HAMSTER, LIVER, S-9, AROCLOR 1254, Method: STANDARD PLATE): inactive; negative | mutagenic call (Test System: AMES SALMONELLA TYPHIMURIUM, Strain/Indicator: TA98, Metabolic Activation: HAMSTER, LIVER, S-9, Method: STANDARD PLATE): inactive; negative | mutagenic call (Test System: AMES SALMONELLA TYPHIMURIUM, Strain/Indicator: TA98, Metabolic Activation: MOUSE, LIVER, S-9, AROCLOR 1254, Method: STANDARD PLATE): inactive; negative | mutagenic call (Test System: AMES SALMONELLA TYPHIMURIUM, Strain/Indicator: TA98, Metabolic Activation: MOUSE, LIVER, S-9, Method: STANDARD PLATE): inactive; negative | mutagenic call (Test System: AMES SALMONELLA TYPHIMURIUM, Strain/Indicator: TA98, Metabolic Activation: NONE, Method: PREINCUBATION): inactive; negative | mutagenic call (Test System: AMES SALMONELLA TYPHIMURIUM, Strain/Indicator: TA98, Metabolic Activation: NONE, Method: STANDARD PLATE): inactive; negative | mutagenic call (Test System: AMES SALMONELLA TYPHIMURIUM, Strain/Indicator: TA98, Metabolic Activation: RAT LIVER S-9, PHENOBARBITAL AND BETA-NAPHTHOFLAVONE, Method: PREINCUBATION): inactive; negative | mutagenic call (Test System: AMES SALMONELLA TYPHIMURIUM, Strain/Indicator: TA98, Metabolic Activation: RAT, LIVER, S-9, AROCLOR 1254 (30%), Method: PREINCUBATION): inactive; negative | mutagenic call (Test System: AMES SALMONELLA TYPHIMURIUM, Strain/Indicator: TA98, Metabolic Activation: RAT, LIVER, S-9, AROCLOR 1254, Method: STANDARD PLATE): inactive; negative | mutagenic call (Test System: AMES SALMONELLA TYPHIMURIUM, Strain/Indicator: TA98, Metabolic Activation: RAT, LIVER, S-9, Method: STANDARD PLATE): inactive; negative | mutagenic call (Test System: AMES SALMONELLA TYPHIMURIUM, Strain/Indicator: TA100, Metabolic Activation: HAMSTER, LIVER, S-9, AROCLOR 1254 (30%), Method: PREINCUBATION): active; positive | mutagenic call (Test System: AMES SALMONELLA TYPHIMURIUM, Strain/Indicator: TA100, Metabolic Activation: NONE, Method: PREINCUBATION): inactive; negative | mutagenic call (Test System: AMES SALMONELLA TYPHIMURIUM, Strain/Indicator: TA100, Metabolic Activation: NONE, Method: STANDARD PLATE): inactive; negative | mutagenic call (Test System: AMES SALMONELLA TYPHIMURIUM, Strain/Indicator: TA100, Metabolic Activation: RAT LIVER S-9, PHENOBARBITAL AND BETA-NAPHTHOFLAVONE, Method: PREINCUBATION): inactive; negative | mutagenic call (Test System: AMES SALMONELLA TYPHIMURIUM, Strain/Indicator: TA100, Metabolic Activation: RAT, LIVER, S-9, AROCLOR 1254 (30%), Method: PREINCUBATION): inactive; negative | mutagenic call (Test System: AMES SALMONELLA TYPHIMURIUM, Strain/Indicator: TA102, Metabolic Activation: NONE, Method: PREINCUBATION): inactive; negative | mutagenic call (Test System: AMES SALMONELLA TYPHIMURIUM, Strain/Indicator: TA102, Metabolic Activation: NONE, Method: STANDARD PLATE): inactive; negative | mutagenic call (Test System: AMES SALMONELLA TYPHIMURIUM, Strain/Indicator: TA102, Metabolic Activation: RAT LIVER S-9, PHENOBARBITAL AND BETA-NAPHTHOFLAVONE, Method: PREINCUBATION): inactive; negative | mutagenic call (Test System: AMES SALMONELLA TYPHIMURIUM, Strain/Indicator: TA104, Metabolic Activation: NONE, Method: PREINCUBATION): inactive; negative | mutagenic call (Test System: AMES SALMONELLA TYPHIMURIUM, Strain/Indicator: TA104, Metabolic Activation: RAT LIVER S-9, PHENOBARBITAL AND BETA-NAPHTHOFLAVONE, Method: PREINCUBATION): inactive; negative | mutagenic call (Test System: AMES SALMONELLA TYPHIMURIUM, Strain/Indicator: TA1535, Metabolic Activation: HAMSTER, LIVER, S-9, AROCLOR 1254, Method: STANDARD PLATE): inactive; negative | mutagenic call (Test System: AMES SALMONELLA TYPHIMURIUM, Strain/Indicator: TA1535, Metabolic Activation: HAMSTER, LIVER, S-9, Method: STANDARD PLATE): inactive; negative | mutagenic call (Test System: AMES SALMONELLA TYPHIMURIUM, Strain/Indicator: TA1535, Metabolic Activation: MOUSE, LIVER, S-9, AROCLOR 1254, Method: STANDARD PLATE): inactive; negative | mutagenic call (Test System: AMES SALMONELLA TYPHIMURIUM, Strain/Indicator: TA1535, Metabolic Activation: MOUSE, LIVER, S-9, Method: STANDARD PLATE): inactive; negative | mutagenic call (Test System: AMES SALMONELLA TYPHIMURIUM, Strain/Indicator: TA1535, Metabolic Activation: NONE, Method: PREINCUBATION): inactive; negative | mutagenic call (Test System: AMES SALMONELLA TYPHIMURIUM, Strain/Indicator: TA1535, Metabolic Activation: NONE, Method: STANDARD PLATE): inactive; negative | mutagenic call (Test System: AMES SALMONELLA TYPHIMURIUM, Strain/Indicator: TA1535, Metabolic Activation: RAT LIVER S-9, PHENOBARBITAL AND BETA-NAPHTHOFLAVONE, Method: PREINCUBATION): inactive; negative | mutagenic call (Test System: AMES SALMONELLA TYPHIMURIUM, Strain/Indicator: TA1535, Metabolic Activation: RAT, LIVER, S-9, AROCLOR 1254, Method: STANDARD PLATE): inactive; negative
